Measured values taken from patent US20090270359A1, “SUBSTITUTED PYRAZOLE DERIVATIVES” (TAKEDA PHARMACEUTICAL COMPANY LIMITED, priority 2007, published 2009).
Where a chain is given by its changes, count along the chain named.

How the values were obtained:
[1] = system: Human prostate cancer cells LNCaP-FGC; assay: Prostate specific antigen (PSA) production inhibition test in prostate cancer cells; format: cell-based; conditions: compound 1 μM, testosterone 0.1 ng/m, PSA in culture supernatant after 3 days by ELISA, testosterone non-addition group 100%, addition group 0%; for inhibition at 1 µM: Homo sapiens, 72 h, read-out: Inhibitory rate (%) at 1 μM (PSA production suppression rate)
Procedure: Human prostate cancer cells LNCaP-FGC were plated in a 24 well plate at 40000 cells/1000 μL/well, and testosterone (final concentration 0.1 ng/m) and the compound (1 μM) were added the next day. The concentration of PSA in the culture supernatant after 3 days from the addition was measured by ELISA, and the PSA production suppression rate was calculated with the testosterone non-addition group as 100% and the testosterone addition group as 0%.

mutant AR (W741C) = target: T1, mutant AR (W741C) (Homo sapiens, UniProt P10275, W742C); assay: AR transcription inhibition test (luciferase reporter in Cos-7 cells); format: cell-based; conditions: compound 1 μM, 0.1 μM DHT, luciferase activity after 24 hr, relative to control (0.1 μM DHT), read-out: Inhibitory rate (%) of mutant AR at 1 μM
T1 construct: expressed in transfected cells; host or cells: Cos-7
T1 sequence (P10275 1-920 W742C): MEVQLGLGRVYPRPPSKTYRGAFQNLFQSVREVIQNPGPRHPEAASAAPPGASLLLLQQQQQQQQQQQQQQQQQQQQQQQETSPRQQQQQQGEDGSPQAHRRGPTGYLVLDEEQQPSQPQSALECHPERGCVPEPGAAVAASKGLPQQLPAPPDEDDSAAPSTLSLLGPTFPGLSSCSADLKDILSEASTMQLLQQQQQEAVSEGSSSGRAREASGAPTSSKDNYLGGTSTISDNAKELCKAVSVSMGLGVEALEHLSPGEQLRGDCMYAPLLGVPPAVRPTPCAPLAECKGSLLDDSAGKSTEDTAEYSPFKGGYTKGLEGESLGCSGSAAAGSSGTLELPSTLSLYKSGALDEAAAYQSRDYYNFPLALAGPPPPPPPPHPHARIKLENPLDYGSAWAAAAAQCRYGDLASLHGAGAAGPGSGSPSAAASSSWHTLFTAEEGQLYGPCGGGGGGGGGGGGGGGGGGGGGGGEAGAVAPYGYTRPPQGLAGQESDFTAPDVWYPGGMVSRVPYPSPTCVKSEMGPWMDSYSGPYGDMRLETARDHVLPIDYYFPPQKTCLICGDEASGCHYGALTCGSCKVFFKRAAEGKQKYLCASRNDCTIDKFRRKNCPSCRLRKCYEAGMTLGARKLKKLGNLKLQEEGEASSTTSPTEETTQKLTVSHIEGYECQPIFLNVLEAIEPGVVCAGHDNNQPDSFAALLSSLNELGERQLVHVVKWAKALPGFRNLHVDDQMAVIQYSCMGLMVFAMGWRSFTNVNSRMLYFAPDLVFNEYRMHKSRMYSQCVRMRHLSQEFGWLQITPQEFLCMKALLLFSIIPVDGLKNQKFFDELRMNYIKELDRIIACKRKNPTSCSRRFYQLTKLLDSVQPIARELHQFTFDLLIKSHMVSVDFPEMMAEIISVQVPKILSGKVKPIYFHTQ
Procedure: Cos-7 cells (5,000,000 cells) were inoculated to a flask, and incubated in a culture medium (DMEM+10% Dextran Charcoal (DCC)−Fetal Bovine Serum (FBS) and 2 mM glutamine) for 24 hours. Then, a vector DNA harboring mutant AR (W741C) and a vector DNA containing a luciferase gene bound at the downstream of an androgen responsive promoter were cotransfected by a liposome method. After 4 hr, the medium was changed and, after culture for 3 hr, DHT (dihydrotestosterone) at the final concentration of 0.1 μM and the compound at the final concentration of 1 μM were added. After further culture for 24 hr, the luciferase activity was measured, and the AR transcription inhibitory activity of the compound was examined.

[2] = target: T2, wild type androgen receptor (AR) (Homo sapiens, UniProt P10275); assay: AR-binding inhibition test, wild type (radio-labeled Mibolerone displacement); conditions: compound 1 μM; 3 nM radio-labeled Mibolerone; 4° C., 3 hours; dextran/charcoal method; read-out: Inhibitory rate (%) at 1 μM, wild type
T2 sequence (P10275 1-920): T1 sequence (P10275 1-920 W742C) with C742W
Procedure: (§1) To a solution of wild type or LNCaP type mutant androgen receptor (AR) was added 3 nM radio-labeled Mibolerone and final concentration 1 μM of the compound. The mixture was incubated at 4° C. for 3 hours, and B (Bound) and F (Free) Mibolerones were separated by the dextran/charcoal method. The label count of B was measured and the inhibition rate of the compound was calculated.

[3] = target: T3, LNCaP type mutant androgen receptor (AR) (Homo sapiens, UniProt P10275, T878A); assay: AR-binding inhibition test, LNCaP type (radio-labeled Mibolerone displacement); conditions: compound 1 μM; 3 nM radio-labeled Mibolerone; 4° C., 3 hours; dextran/charcoal method; read-out: Inhibitory rate (%) at 1 μM, LNCaP type
T3 sequence (P10275 1-920 T878A): T1 sequence (P10275 1-920 W742C) with C742W, T878A
Procedure: as §1

Row | Compound | inhibition at 1 µM (mutant AR (W741C)) | inhibition at 1 µM [2] | inhibition at 1 µM [3] | inhibition at 1 µM [1] | Inhibitory rate (%) at 1 μM (PSA production suppression rate) [1]
1 | Cc1nn(Cc2cccc(C(N)=O)c2)c(C)c1-c1ccc(C#N)c(Cl)c1 [Example 68, 3-{[4-(3-chloro-4-cyanophenyl)-3,5-dimethyl-1H-pyrazol-1-yl]methyl}benzamide] | 31% | 76% | 82% | 95.4% | –
2 | Cc1nn(Cc2ccc(C(N)=O)cc2)c(C)c1-c1ccc(C#N)c(Cl)c1 [Example 69, 4-{[4-(3-chloro-4-cyanophenyl)-3,5-dimethyl-1H-pyrazol-1-yl]methyl}benzamide] | 19% | 88% | 80% | 107% | –
3 | Cc1nn(Cc2ccc(F)c(C(N)=O)c2)c(C)c1-c1ccc(C#N)c(Cl)c1 [Example 77, 5-{[4-(3-chloro-4-cyanophenyl)-3,5-dimethyl-1H-pyrazol-1-yl]methyl}-2-fluorobenzamide] | 92% | 78% | 68% | 102% | –
4 | Cc1nn(Cc2ccc(C(=O)NCC(C)(C)O)cc2)c(C)c1-c1ccc(C#N)c(Cl)c1 [Example 282, 4-{[4-(3-chloro-4-cyanophenyl)-3,5-dimethyl-1H-pyrazol-1-yl]methyl}-N-(2-hydroxy-2-methylpropyl)benzamide] | 28% | 58% | 54% | 80% | –
5 | Cc1nnc(-c2ccc(Cn3nc(C)c(-c4ccc(C#N)c(Cl)c4)c3C)cc2)o1 [Example 286, 2-chloro-4-{3,5-dimethyl-1-[4-(5-methyl-1,3,4-oxadiazol-2-yl)benzyl]-1H-pyrazol-4-yl}benzonitrile] | 67% | 85% | 89% | 107% | –
6 | CC(O)(CS(=O)(=O)c1ccc(F)cc1)C(=O)Nc1ccc(C#N)c(C(F)(F)F)c1 (stereo not drawn) [bicartamide, reference compound] | – | – | – | – | 75.0%

Second part, led by results:

Row | inhibition at 1 µM (mutant AR (W741C)) | inhibition at 1 µM [2] | inhibition at 1 µM [3] | Compound | inhibition at 1 µM [1] | Inhibitory rate (%) at 1 μM (PSA production suppression rate) [1]
7 | 32% | 66% | 75% | Cc1nn(Cc2ccc(C(N)=O)nc2)c(C)c1-c1ccc(C#N)c(Cl)c1 [Example 105, 5-{[4-(3-chloro-4-cyanophenyl)-3,5-dimethyl-1H-pyrazol-1-yl]methyl}pyridine-2-carboxamide] | 109% | –
8 | 38% | 49% | 79% | CNC(=O)c1ccc(Cn2nc(C)c(-c3ccc(C#N)c(Cl)c3)c2C)cn1 [Example 106, 5-{[4-(3-chloro-4-cyanophenyl)-3,5-dimethyl-1H-pyrazol-1-yl]methyl}-N-methylpyridine-2-carboxamide] | 110% | –
9 | 36% | 74% | 82% | Cc1nn(Cc2ccc(C(=O)NC3CC3)cc2)c(C)c1-c1ccc(C#N)c(Cl)c1 [Example 304, 4-{[4-(3-chloro-4-cyanophenyl)-3,5-dimethyl-1H-pyrazol-1-yl]methyl}-N-cyclopropylbenzamide] | 98.3% | –
10 | 72% | 70% | 73% | Cc1nn(Cc2ccc(C(=O)NC3CC3)nc2)c(C)c1-c1ccc(C#N)c(Cl)c1 [Example 310, 5-{[4-(3-chloro-4-cyanophenyl)-3,5-dimethyl-1H-pyrazol-1-yl]methyl}-N-cyclopropylpyridine-2-carboxamide] | 106% | –
11 | 17% | 29% | 29% | Cc1nn(Cc2ccc(C(N)=O)nc2)c(C)c1-c1ccc(C#N)c(C(F)(F)F)c1 [Example 311, 5-({4-[4-cyano-3-(trifluoromethyl)phenyl]-3,5-dimethyl-1H-pyrazol-1-yl}methyl)pyridine-2-carboxamide] | 85.8% | –
12 | 24% | 84% | 83% | Cc1nn(Cc2ccc(S(N)(=O)=O)cc2)c(C)c1-c1ccc(C#N)c(Cl)c1 [Example 322, 4-{[4-(3-chloro-4-cyanophenyl)-3,5-dimethyl-1H-pyrazol-1-yl]methyl}benzenesulfonamide] | 108% | –
